Measurements from patent US20080294071A1, “Assay Method” (priority 2004, published 2008).

Experiments:
rats [1] = assay: Locomotor activity test; assay type: in vivo, Male Sprague Dawley rats
Protocol: (§1) Male Sprague Dawley rats 200-300 g (Charles River, Margate, U.K.) were housed in group of five per cage under a 12 h light/dark cycle with food and water available ad libitum. Each experiment was carried out with groups of at minimum 7 rats. All procedures in this study were performed in accordance with the Home Office Animals (Scientific Procedures) Act 1986 and accordingly with our Project License, after the experiment, animals were sacrificed by schedule 1 method.
The spontaneous locomotor activity of rats in a novel environment was monitored for 30 min in a 35×20 cm Perspex chamber. The cage was equipped with two series photocells located at 2 and 15 cm above the floor (San Diego Instruments, CA, USA). To measure drug-induced decrease locomotion such as morphine and gabapentin, at a pre-defined time post drug administration, each animal was placed in the centre of the cage. To measure drug-induced increase in locomotion such as phencyclidine (PCP) rats were placed in the cage at least 30 min before recording. total activity (ambulation and rearing) was monitored every 5 min for 30 min.
(§2) In the locomotor activity task, total counts are the sum of horizontal and vertical movements (photo beam breaks) in 30 minutes recording. For PCP vertical and horizontal activity are analysed separately. Data were expressed as the arithmetic mean ±SEM and analysed by ANOVA. In the beam walking test, the time to cross the beam (seconds) and the number of foot slips were expressed as mean ±SEM and analysed by ANOVA and Mann Whitney U test, respectively.

rats [2] = assay: Beam walking test; assay type: in vivo, Male Sprague Dawley rats
Protocol: as §1
The Beam walking apparatus consists of a 1.5 m long beam with a 2.5×2.5 cm square cross section, elevated 75 cm above the floor. The test was performed in dim light conditions (18 lux). A light source (520 lux) was placed at the start-end of the beam while a dark box at the other side (Feeney D M et al, Amphetamine, Haloperidol, and experience interact to affect rate of recovery after motor cortex injury, Science 217, 1982). Rats were habituated to the dim light condition for at least 1 hour before the beginning of the training sessions. Rats were trained to cross the beam over 2 days, twice a day. The first day, rodents were trained to cross starting from last quarter and half of the beam until the dark box, in the first and second session, respectively. The following day rodents were trained to cross the entire length of the beam twice. At least 2 hours were left between each daily session. On the day of test a baseline recording was registered before compound administration and rats were selected based on their ability to cross the beam with no major impairments. Therefore, only rodents that crossed the beam in less than 10 seconds and showing two or less foot slips were used for the assessment of drug-induced motor impairments. Then rats were tested for their ability to cross the beam at various time points after drug injection. The time taken to cross and the number of foot slips produced while a rat was crossing the beam were counted. […] No movement or freezing behaviours were also scored with the maximum value.
as §2

[3] = clinical literature; cited from earlier work
[4] = 1 and 10 mg/kg ip, 1 hr post injection

SMILES: NCC1(CC(=O)O)CCCCC1 [Gabapentin]
- decrease in locomotor activity (of vehicle-treated group) (rats [1]; 100 mg/kg PO (highest dose), one hour post dose): 27%
- locomotor activity, effect (rats [1]; 100 mg/kg in rats): small (albeit statistically significant) decrease
- locomotor activity, effect across doses (rats [1]; 10, 30 and 100 mg/kg PO, one hour post dose): decreased significantly the locomotor activity of rats at the highest dose only
- total counts in 30 min (rats [1]; gabapentin highest dose 100 mg/kg PO, one hour post dose): 262±25 counts
- number of foot slips, effect (rats [2]; 100 mg/kg in rats): robust increase
- time to cross the beam, effect (rats [2]; 30, 100 and 300 mg/kg PO, up to 6 hrs, p<0.05): only at 3 and 4 hour post administration the highest dose significantly increase the time to cross
- duration of effect on foot slips (lasting till) (rats [2]; PO): 4 h
- time of peak effect on foot slips (rats [2]; PO): 2 h
- lowest dose increasing number of foot slips (rats [2]; PO, 30, 100 and 300 mg/kg tested, dose dependent): 100 mg/kg
- rats that fell off the beam (rats [2]; PO, 2 hours post dose): 25%
- rats that fell off the beam (rats [2]; PO, 3 hours post dose): 25%
- number of foot slips (rats [2]; PO, dose not stated, 1 hour post dose, water treated 0.6±0.4): 1.5±0.5
- number of foot slips (peak effect) (rats [2]; PO, dose not stated, 2 hours post dose, vehicle 0.2±0.2, p<0.01): 2.9±0.5
- adverse events in humans [3]: dizziness and somnolence

SMILES: CN1CC[C@]23c4c5ccc(O)c4O[C@H]2[C@@H](O)C=C[C@H]3[C@H]1C5.O=S(=O)(O)O [Morphine sulphate]
- total counts (horizontal + vertical) in 30 min (rats [1]; 10 mg/kg SC, 30 min post dose, vehicle 424±23, p<0.01): 28±6 counts
- total counts in 30 min (rats [1]; morphine 3 mg/kg, comparator in gabapentin study): 138±26 counts
- locomotion in the beam walking (rats [2]; 3 mg/kg SC, any time point (30 min, 1, 2, 3 h)): did not modify the locomotion
- time to cross the beam (rats [2]; 10 mg/kg SC, 30 min post dose, controls 4.1±0.7, significant): 12.6 ± 0.7 s
- number of foot slips (rats [2]; 10 mg/kg SC, 30 minutes post dose, vehicle 0.1±0.1, not statistically different): 1.0±0.6
- number of foot slips (rats [2]; 10 mg/kg SC, 1 hr post dose, vehicle 0.1±0.1, not statistically different): 1.0±0.6
- rats falling off the beam (rats [2]; 3 and 10 mg/kg SC): No rats fell off the beam
- MED (minimal effective dose) in beam walking (rats [2]; SC): 10 mg/kg
- adverse events in humans [3]: somnolence, sedation and addiction

SMILES: c1ccc(C2(N3CCCCC3)CCCCC2)cc1 [PCP, phencyclidine]
- observed signs (rats [1]; 10 mg/kg ip): signs of ataxia
- vertical activity (rearing) (rats [1]; 10 mg/kg, standard protocol for drug-induced decrease in movement, vehicle 186±17, p<0.01, data not shown): 30±9
- total activity (vertical+horizontal) vs vehicle-treated group (rats [1]; [4]): did not change significantly
- vertical movement (rats [1]; [4]): only the lower dose significantly increased the vertical movement
- horizontal activity (rats [1]; 1 and 10 mg/kg ip, 1 hr post injection, p<0.05): increased the horizontal activity in a dose dependent manner
- number of foot slips, effect (rats [2]; 1 mg/kg ip, 2 hours post dose, p<0.05): slight but significant increase
- rodents that could not be placed on the beam (lack of paw coordination) (rats [2]; 10 mg/kg ip, 30 min post dose): 100%
- rodents that could not be placed on the beam (lack of paw coordination) (rats [2]; 10 mg/kg ip, 1 hour post dose): 100%
- animals that did cross the beam (rats [2]; 10 mg/kg ip, 2 hours post dose): 80%
- number of foot slips (rats [2]; 10 mg/kg ip, 2 hours post dose, animals that crossed): ≥ 5
- time taken to cross the beam vs controls (rats [2]; 10 mg/kg ip, 2 hours post dose, p<0.01): significantly different from controls
- recovery (rats [2]; 10 mg/kg ip, 4 hrs post dose): almost all rats recovered
- time taken to cross the beam, effect across doses (rats [2]; 0.1-1-10 mg/kg ip): increased the time taken to cross the beam at the higher dose only
- number of foot slips, effect (rats [2]; lower dose (0.1 mg/kg ip)): no effect
- adverse events in humans [3]: induce ataxia
